The NIST ThermoML archive (doi:10.1016/j.jct.2008.06.002)
“And” between values parts separate entries of the source, which are not always exact repeats. Equal values may be shown once. ± gives the expanded uncertainty stated by the source.

Conditions: Liquid

## CC(F)F [1,1-difluoroethane]
253.68 K
  vapor or sublimation pressure: 115.2 ± 4.5 kPa
258.44 K
  vapor or sublimation pressure: 142.2 ± 5.5 kPa and 144 ± 5.5 kPa
263.39 K
  vapor or sublimation pressure: 174.9 ± 6.7 kPa
268.32 K
  vapor or sublimation pressure: 213.7 ± 8.1 kPa
273.23 K
  vapor or sublimation pressure: 256.8 ± 9.7 kPa
278.19 K
  vapor or sublimation pressure: 308.1 ± 12 kPa
278.25 K
  vapor or sublimation pressure: 311.7 ± 12 kPa
283.31 K
  vapor or sublimation pressure: 368.5 ± 14 kPa
288.27 K
  vapor or sublimation pressure: 432.9 ± 16 kPa
293.23 K
  vapor or sublimation pressure: 506.8 ± 19 kPa
298.17 K
  vapor or sublimation pressure: 590.3 ± 22 kPa
298.84 K
  vapor or sublimation pressure: 604.4 ± 23 kPa
303.37 K
  vapor or sublimation pressure: 687.6 ± 26 kPa
308.31 K
  vapor or sublimation pressure: 791 ± 30 kPa
308.37 K
  vapor or sublimation pressure: 812.5 ± 30 kPa
313.19 K
  vapor or sublimation pressure: 904.5 ± 34 kPa
318.25 K
  vapor or sublimation pressure: 1034.8 ± 39 kPa
323.26 K
  vapor or sublimation pressure: 1175.4 ± 44 kPa
323.3 K
  vapor or sublimation pressure: 1185.5 ± 44 kPa
328.12 K
  vapor or sublimation pressure: 1326.8 ± 50 kPa
333.31 K
  vapor or sublimation pressure: 1502.3 ± 56 kPa
338.19 K
  vapor or sublimation pressure: 1683.5 ± 63 kPa
343.1 K
  vapor or sublimation pressure: 1879.6 ± 70 kPa
343.2 K
  vapor or sublimation pressure: 1891.7 ± 71 kPa
348.26 K
  vapor or sublimation pressure: 2104.6 ± 78 kPa

## O=C=O [carbon dioxide]
258.44 K
  vapor or sublimation pressure: 2294 ± 43 kPa
278.25 K
  vapor or sublimation pressure: 3977 ± 74 kPa
298.84 K
  vapor or sublimation pressure: 6502.6 ± 120 kPa
